Reference: the supplement of paper PMC11061612

Assays:
Test in all cases: combination Emax (second highest fraction inhibited in the dose matrix, 72 h); higher = more inhibition; extreme values may be limits of the assay
[1] = test system: KINGS-1 (Low Grade Glioma)
Procedure, shortened: (§1)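 After 24 hours at 37°C and 5% CO2 in 1536-well plates, cells in DMEM/F12 or RPMI plus 10% FBS received two-drug dose matrices for 72 hours. Viability came from CellTiter-Glo 2.0 luminescence and was scaled as inhibition, anchored at 0 by vehicle wells and at 1 by blank wells. Combination Emax is taken as the second-highest inhibition in the matrix, and Bliss excess as the observed combination effect less EA + EB − EA·EB, with EA and EB the single-agent effects.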

[2] = test system: BT-20 (Breast Carcinoma)
Procedure, shortened: as §1

[3] = test system: SCC-3 (B-Cell Non-Hodgkin's Lymphoma)
Procedure, shortened: as §1

[4] = test system: EBC-1 (Squamous Cell Lung Carcinoma)
Procedure, shortened: as §1

[5] = test system: GI-1 (Glioblastoma)
Procedure, shortened: as §1

[6] = test system: NCI-N87 (Gastric Carcinoma)
Procedure, shortened: as §1

[7] = test system: PF-382 (T-Lymphoblastic Leukemia)
Procedure, shortened: as §1

[8] = test system: KU-19-19 (Bladder Carcinoma)
Procedure, shortened: as §1

[9] = test system: KLE (Endometrial Carcinoma)
Procedure, shortened: as §1

[10] = test system: NH-12 (Neuroblastoma)
Procedure, shortened: as §1

[11] = test system: ASH-3 (Thyroid Gland Carcinoma)
Procedure, shortened: as §1

[12] = test system: HSC-2 (Oral Cavity Carcinoma)
Procedure, shortened: as §1

[13] = test system: H-EMC-SS (Chondrosarcoma)
Procedure, shortened: as §1

[14] = test system: NCI-H2347 (Lung Adenocarcinoma)
Procedure, shortened: as §1

[15] = test system: RPMI-7951 (Melanoma)
Procedure, shortened: as §1

[16] = test system: KP-2 (Pancreatic Carcinoma)
Procedure, shortened: as §1

[17] = test system: BV-173 (Chronic Myelogenous Leukemia)
Procedure, shortened: as §1

[18] = test system: SCC-9 (Oral Cavity Carcinoma)
Procedure, shortened: as §1

[19] = test system: SNU-C1 (Colorectal Carcinoma)
Procedure, shortened: as §1

[20] = test system: A704 (Kidney Carcinoma)
Procedure, shortened: as §1

| Compound | combination Emax [1] | combination Emax [2] | combination Emax [3] | combination Emax [4] | combination Emax [5] | combination Emax [6] | combination Emax [7] | combination Emax [8] | combination Emax [9] | combination Emax [10] | combination Emax [11] | combination Emax [12] | combination Emax [13] | combination Emax [14] | combination Emax [15] | combination Emax [16] | combination Emax [17] | combination Emax [18] | combination Emax [19] | combination Emax [20] |
| --- | --- | --- | --- | --- | --- | --- | --- | --- | --- | --- | --- | --- | --- | --- | --- | --- | --- | --- | --- | --- |
| CN(CCO)CC[C@H](CSc1ccccc1)Nc1ccc(S(=O)(=O)NC(=O)c2ccc(N3CCC([C@@H](O)c4ccccc4-c4ccc(Cl)cc4)CC3)cc2)cc1S(=O)(=O)C(F)(F)F [AZD4320] + C=CCn1c(=O)c2cnc(Nc3ccc(N4CCN(C)CC4)cc3)nc2n1-c1cccc(C(C)(C)O)n1 [AZD1775] (first compound max 1 µM, partner max 1 µM) | 0.526 | 0.787 | 0.779 | 0.975 | 1 | 0.888 | 1 | 0.964 | 0.573 | 0.98 | 0.531 | 0.639 | 0.402 | 0.571 | 0.879 | 0.912 | 0.958 | 0.281 | 0.613 | 0.781 |
| COc1cccc2c1C(=O)c1c(O)c3c(c(O)c1C2=O)C[C@@](O)(C(=O)CO)C[C@@H]3O[C@H]1C[C@H](N)[C@H](O)[C@H](C)O1 [Doxorubicin] + Cc1cc2ncnn2cc1Nc1ncc2c(n1)n(C1CCOCC1)c(=O)n2C [AZD7648] (first compound max 1 µM, 7x7, partner max 10 µM) | 0.664 | 0.769 | 0.978 | 0.496 | 0.929 | 0.726 | 0.989 | 0.814 | 0.6 | 0.944 | 0.912 | 0.89 | 0.957 | 0.253 | 0.957 | 0.513 | 0.994 | 0.411 | 0.407 | 0.176 |
| CN(C)CCCOc1ccc(-c2ccc3ncc4c(c3c2)n(C2CCOCC2)c(=O)n4C)cn1 [AZD0156] + C[C@@H]1COCCN1C2=NC(=NC(=C2)C3(CC3)[S@](=N)(=O)C)C4=C5C=CNC5=NC=C4 [AZD6738] (first compound max 1 µM, 7x7, partner max 10 µM) | 0.25 | 0.449 | 0.998 | 0.535 | 0.926 | 0.704 | 0.855 | 0.869 | 0.469 | 0.901 | 0.719 | 0.696 | 0.402 | 0.346 | 0.886 | 0.158 | 0.975 | 0.321 | 0.489 | 0.392 |
| COc1cccc(OCCCN)c1-c1cc(Nc2cnc(C#N)cn2)n[nH]1 [Prexasertib] + C=CCn1c(=O)c2cnc(Nc3ccc(N4CCN(C)CC4)cc3)nc2n1-c1cccc(C(C)(C)O)n1 [AZD1775] (first compound max 1 µM, partner max 1 µM) | 0.638 | 0.839 | 1 | 0.666 | 0.994 | 0.797 | 0.942 | 0.858 | 0.674 | 0.944 | 0.848 | 0.882 | 0.554 | 0.481 | 0.991 | 0.613 | 0.994 | 0.482 | 0.847 | 0.517 |
| CC1(C)CCC(CN2CCN(c3ccc(C(=O)NS(=O)(=O)c4ccc(NCC5CCOCC5)c([N+](=O)[O-])c4)c(Oc4cnc5[nH]ccc5c4)c3)CC2)=C(c2ccc(Cl)cc2)C1 [Venetoclax] + C1CN(CCC1(C(=O)N[C@@H](CCO)C2=CC=C(C=C2)Cl)N)C3=NC=NC4=C3C=CN4 [Capivasertib] (first compound max 1 µM, 7x7, partner max 3 µM) | 0.329 | 0.62 | 0.131 | 0.317 | 0.412 | 0.521 | 0.518 | 0.2 | 0.315 | 0.612 | 0.285 | 0.364 | 0.413 | 0.158 | 0.472 | 0.0692 | 0.897 | 0.146 | 0.428 | 0.318 |
| CC1(C)CCC(CN2CCN(c3ccc(C(=O)NS(=O)(=O)c4ccc(NCC5CCOCC5)c([N+](=O)[O-])c4)c(Oc4cnc5[nH]ccc5c4)c3)CC2)=C(c2ccc(Cl)cc2)C1 [Venetoclax] + C[C@@H](Nc1cc(F)cc(F)c1)c1cc(C(=O)N(C)C)cc2c(=O)cc(N3CCOCC3)oc12 [AZD8186] (first compound max 1 µM, 7x7, partner max 3 µM) | 0.332 | 0.0992 | 0.207 | 0.209 | 0.28 | 0.578 | 0.202 | 0.0745 | 0.41 | 0.612 | 0.332 | 0.92 | 0.323 | 0.189 | 0.496 | 0.0788 | 0.82 | 0.193 | 0.063 | 0.429 |
| NC1(C(=O)N[C@@H](CCO)c2ccc(Cl)cc2)CCN(c2ncnc3[nH]ccc23)CC1 [Capivasertib] + CC(C)n1c(=O)n(C)c2cnc3cc(F)c(-c4ccc(OCCCN5CCCCC5)nc4)cc3c21 [AZD1390] (first compound max 10 µM, 7x7, partner max 0.3 µM) | 0.374 | 0.733 | 0.216 | 0.322 | 0.658 | 0.674 | 0.612 | 0.266 | 0.43 | 0.363 | 0.384 | 0.447 | 0.432 | 0.196 | 0.662 | 0.102 | 0.51 | 0.26 | 0.528 | 0.314 |
| Cc1c2c(nn1C)CSCc1cc(n(C)n1)CSc1cc(c3ccccc3c1)OCCCc1c(C(=O)O)n(C)c3c-2c(Cl)ccc13 [AZD5991] + Cn1cnc2c(F)c(Nc3ccc(Br)cc3Cl)c(C(=O)NOCCO)cc21 [Selumetinib] (first compound max 1 µM, 7x7, partner max 3 µM) | 0.354 | 0.763 | 0.639 | 0.827 | 0.726 | 0.426 | 0.207 | 0.885 | 0.287 | 0.568 | 0.368 | 0.907 | 0.563 | 0.41 | 0.934 | 0.749 | 0.938 | 0.654 | 0.695 | 0.306 |
| COc1nnc2ccc(N3CCC(c4ccc(OCCN5CCN(C)C(=O)[C@H]5C)cc4)CC3)nn12 [AZD5153] + C=CCn1c(=O)c2cnc(Nc3ccc(N4CCN(C)CC4)cc3)nc2n1-c1cccc(C(C)(C)O)n1 [AZD1775] (first compound max 1 µM, partner max 1 µM) | 0.251 | 0.471 | 0.9 | 0.802 | 0.973 | 0.717 | 0.999 | 0.731 | 0.679 | 0.91 | 0.742 | 0.679 | 0.23 | 0.413 | 0.802 | 0.437 | 0.931 | 0.518 | 0.546 | 0.652 |
| Cc1cc2ncnn2cc1Nc1ncc2c(n1)n(C1CCOCC1)c(=O)n2C [AZD7648] + C=CCn1c(=O)c2cnc(Nc3ccc(N4CCN(C)CC4)cc3)nc2n1-c1cccc(C(C)(C)O)n1 [AZD1775] (first compound max 10 µM, partner max 1 µM) | 0.318 | 0.559 | 0.815 | 0.209 | 0.86 | 0.731 | 0.957 | 0.749 | 0.508 | 0.848 | 0.324 | 0.596 | 0.53 | 0.359 | 0.704 | 0.187 | 0.964 | 0.293 | 0.392 | 0.478 |
| COc1cc2ncnc(Nc3ccc(F)c(Cl)c3)c2cc1OCCCN1CCOCC1 [Gefitinib] + CC(C)n1c(=O)n(C)c2cnc3cc(F)c(-c4ccc(OCCCN5CCCCC5)nc4)cc3c21 [AZD1390] (first compound max 10 µM, 7x7, partner max 0.3 µM) | 0.113 | 0.244 | 0.348 | 0.0862 | 0.18 | 0.845 | 0.323 | 0.0903 | 0.442 | 0.121 | 0.146 | 0.555 | 0.201 | 0.0611 | 0.0802 | 0.0653 | 0.391 | 0.626 | 0.0654 | 0.439 |
| COc1nnc2ccc(N3CCC(c4ccc(OCCN5CCN(C)C(=O)[C@H]5C)cc4)CC3)nn12 [AZD5153] + CCN(CCO)CCCOc1ccc2c(Nc3cc(CC(=O)Nc4cccc(F)c4)[nH]n3)ncnc2c1 [AZD2811] (first compound max 1 µM, 7x7, partner max 1 µM) | 0.193 | 0.185 | 0.9 | 0.764 | 0.873 | 0.547 | 0.98 | 0.665 | 0.674 | 0.739 | 0.78 | 0.662 | 0.248 | 0.385 | 0.613 | 0.401 | 0.936 | 0.428 | 0.531 | 0.497 |
